The source made the active and inactive calls. No cut-off for these calls is given here.
Key:
[1] = Antiproliferative activity against human Sunitinib-resistant 786-R cells incubated for 48 hrs by XTT assay; assay type: functional, cell-based
786-0 = experiment: Antiproliferative activity against human 786-0 cells incubated for 48 hrs by XTT assay; assay type: functional, cell-based; conditions: 786-0, 48 h
A498 [2] = experiment: Antiproliferative activity against human A498 cells incubated for 48 hrs by XTT assay; assay type: functional, cell-based; conditions: A498, 48 h
[3] = Antiproliferative activity against human Cisplatin and radiotherapy resistant CAL27RR cells incubated for 48 hrs by XTT assay; assay type: functional, cell-based
CAL-33 = experiment: Antiproliferative activity against human CAL-33 cells incubated for 48 hrs by XTT assay; assay type: functional, cell-based; conditions: CAL-33, 48 h
CAL-27 = experiment: Antiproliferative activity against human CAL-27 cells incubated for 48 hrs by XTT assay; assay type: functional, cell-based; conditions: CAL-27, 48 h
[4] = Antiproliferative activity against human Cisplatin and radiotherapy resistant CAL33RR cells incubated for 48 hrs by XTT assay; assay type: functional, cell-based
RCC4 = experiment: Antiproliferative activity against human RCC4 cells incubated for 48 hrs by XTT assay; assay type: functional, cell-based; conditions: RCC4, 48 h
A498 [5] = experiment: Inhibition of CXCL8-induced cell migration in human A498 cells at 0.5 uM incubated for 24 hrs by crystal violet staining based analysis relative to control; assay type: functional
A498 [6] = experiment: Inhibition of cell invasion in human A498 cells cultured as 3D spheroids at 5 uM measured after 7 days by light microscopic imaging analysis relative to control; assay type: functional; conditions: A498, 168 h, time 7 day
A498 [7] = experiment: Inhibition of cell invasion in human A498 cells cultured as 3D spheroids at 5 uM measured after 7 days by light microscopic imaging analysis; assay type: functional, cell-based; conditions: time 7.0 day

Row | IC50 (786-0) [µM] | SMILES | IC50 [1] [µM] | IC50 (A498 [2]) [µM] | IC50 [3] [µM] | IC50 (CAL-33) [µM] | IC50 (CAL-27) [µM] | IC50 [4] [µM] | IC50 (RCC4) [µM] | inhibition at 0.5 µM (A498 [5]) [%] | inhibition at 5 µM (A498 [6]) [%] | inhibition (A498 [7])
1 | > 10 | O=C(Nc1cccc(Cl)c1)Nc1nc2ccc(-c3ccoc3)cc2s1 | > 10 | > 10 | > 10 | > 10 | > 10 | > 10 | > 10 |  |  | 
2 |  | O=C(Nc1cccc(Cl)c1)Nc1nc2ccc([N+](=O)[O-])cc2s1 | 2.5 |  | 2 | 2 | 3 | 3 | 5 | > 50 | > 75 | 
3 | 4 | Cc1nn(C)cc1-c1ccc2nc(NC(=O)Nc3cccc(Cl)c3)sc2c1 | 8 | 5 | 6 | 6 | 7 | 7 | 8 |  |  | Active
4 | > 25 | O=C(Nc1cccc(Cl)c1)Nc1nc2ccc(-c3ccsc3)cc2s1 | > 25 | > 25 | > 25 | > 25 | > 25 | > 25 | > 25 |  |  | 
5 | > 25 | CCOc1ccc2nc(NC(=O)Nc3cc(Cl)cc(Cl)c3)sc2c1 | > 25 | > 25 | 20 | 15 | > 25 | > 25 | > 25 |  |  | 
6 | 25 | COc1ccc(NC(=O)Nc2nc3ccc([N+](=O)[O-])cc3s2)cc1 | 25 | 20 | > 25 | > 25 | > 25 | > 25 | 20 |  |  | 
7 | 7 | O=C(Nc1cccc(Cl)c1)Nc1nc2ccc(-c3cccc4ccccc34)cc2s1 | 10 | 5 | > 25 | 12 | > 25 | > 25 | 8 |  |  | inactive
8 | > 25 | CCOc1ccc2nc(NC(=O)Nc3cccc(Cl)c3)sc2c1 | > 25 | > 25 | 20 | 4 | > 25 | > 25 | > 25 |  |  | 
9 | > 25 | O=C(Nc1cccc(Cl)c1)Nc1nc2ccc(-c3ccco3)cc2s1 | > 25 | > 25 | > 25 | > 25 | > 25 | > 25 | > 25 |  |  | 
10 | > 10 | Cc1ccc(-c2ccc3nc(NC(=O)Nc4cccc(Cl)c4)sc3c2)s1 | > 10 |  | > 10 | > 10 | > 10 | > 10 | > 10 |  |  | 
11 | 2.5 | Cc1noc(C)c1-c1ccc2nc(NC(=O)Nc3cccc(Cl)c3)sc2c1 | 4 | 3 | 2.5 | 3.5 | 1 | 3.5 | 5 |  |  | Active
12 | > 25 | O=C(Nc1ccccc1)Nc1nc2cc([N+](=O)[O-])ccc2o1 | > 25 | > 25 | > 25 | > 25 | > 25 | > 25 | > 25 |  |  | 
13 | 2 | O=C(Nc1ccc(Cl)cc1)Nc1nc2ccc([N+](=O)[O-])cc2s1 | 5 | 3 | 4 | 2.5 | 5 | 2 | 3 | > 50 | > 75 | 
14 | 20 | O=C(Nc1cccc(Cl)c1)Nc1nc2ccc([N+](=O)[O-])cc2o1 | > 25 | 22 | > 25 | > 25 | > 25 | 12 | 25 |  |  | 
15 | 20 | Nc1ccc2nc(NC(=O)Nc3cccc(Cl)c3)sc2c1 | > 25 | 20 | 20 | > 25 | > 25 | > 25 | 20 |  |  | 
16 | 15 | O=C(Nc1nc2ccc([N+](=O)[O-])cc2s1)Nc1ccccc1Br | 14 | 20 | 25 | 8 | > 25 | > 25 | 25 |  |  | 

Row | IC50 (786-0) [µM] | SMILES | IC50 [1] [µM] | IC50 (A498 [2]) [µM] | IC50 [3] [µM] | IC50 (CAL-33) [µM] | IC50 (CAL-27) [µM] | IC50 [4] [µM] | IC50 (RCC4) [µM] | inhibition at 0.5 µM (A498 [5]) [%] | inhibition at 5 µM (A498 [6]) [%] | inhibition (A498 [7])
17 | > 25 | O=C(Nc1cccc(Cl)c1)Nc1nc2ccc(-c3cccs3)cc2s1 | > 25 | > 25 | > 25 | > 25 | > 25 | > 25 | > 25 |  |  | 
18 | 5 | O=C(Nc1ccccc1)Nc1nc2ccc([N+](=O)[O-])cc2s1 | 5 | 3 | 4 | 6 | 25 | 25 | 5 |  |  | 
19 | 25 | O=C(Nc1ccccc1)Nc1nc2cc([N+](=O)[O-])ccc2[nH]1 | > 25 | 25 | 15 | 20 | > 25 | > 25 | > 25 |  |  | 
20 | 8 | Cc1ccccc1NC(=O)Nc1nc2ccc([N+](=O)[O-])cc2s1 | 6 | 6 | 4 | 4 | 4 | 4 | 10 |  |  | 
21 | 7 | O=C(Nc1nc2ccc([N+](=O)[O-])cc2s1)Nc1ccccc1Cl | 10 | 6 | 7 | 8 | 8 | 7 | 9 |  |  | 
22 | > 25 | O=C(Nc1cccc(Cl)c1)Nc1nc2ccc(Br)cc2s1 | > 25 | > 25 | > 25 | > 25 | > 25 | > 25 | > 25 |  |  | 
23 | 5 | Cc1ccc(NC(=O)Nc2nc3ccc([N+](=O)[O-])cc3s2)cc1 | 5 | 15 | 4 | 7 | 7 | 7 | 10 |  |  | 
24 | > 25 | CS(=O)(=O)Nc1ccc2nc(NC(=O)Nc3cccc(Cl)c3)sc2c1 | > 25 | > 25 | > 25 | > 25 | > 25 | > 25 | > 25 |  |  | 
25 | 4 | O=C(Nc1cccc(Cl)c1)Nc1nc2cc([N+](=O)[O-])ccc2[nH]1 | 4 | 8 | 10 | 15 | 25 | 25 | 3 |  |  | 
26 | > 10 | Cn1cc(-c2ccc3nc(NC(=O)Nc4cccc(Cl)c4)sc3c2)cn1 | > 10 | > 10 | > 10 | > 10 | 7 | > 10 | > 10 |  |  | 
27 | 25 | O=C(Nc1cccc(Cl)c1)Nc1nc2cc([N+](=O)[O-])ccc2o1 | > 25 | 25 | > 25 | > 25 | > 25 | > 25 | 25 |  |  | 
28 | > 25 | CC(=O)Nc1ccc2nc(NC(=O)Nc3cccc(Cl)c3)sc2c1 | 25 | 25 | 7 | 20 | > 25 | > 25 | > 25 |  |  | 
29 | 4 | Cc1ccc(NC(=O)Nc2nc3ccc([N+](=O)[O-])cc3o2)cc1 | 25 | 9 | 20 | 15 | 25 | 20 | 2 |  |  | 
30 | 15 | O=C(Nc1cccc(Cl)c1)Nc1nc2ccc(-c3ccccn3)cc2s1 | 8 | 12 | > 25 | > 25 | > 25 | > 25 | 25 |  |  | 
31 | 5 | O=C(Nc1ccc(Br)cc1)Nc1nc2ccc([N+](=O)[O-])cc2s1 | 5 | 2.5 | 2.5 | 2 | 5 | 5 | 7 | > 50 | > 75 | 
